Results taken from patent US5736548A, “6-aryl pyrazolo[3,4-D] pyrimidin-4-ones and compositions and method of use thereof” (Sanofi, priority 1997, dated 1998).
pIC50: −log10 of the molar value. Values joined by “and” are separate entries in the source; they are usually repeats but may differ in a detail not shown here. Equal entries are not always repeated. Structures can show the parent of a compound that is named as a salt. Where two headings read alike, the source gives them in different places.

Target: cGMP-PDE V (Homo sapiens, UniProt O76074)
Assay: biochemical
Parameters: species or system various animal species and man
Details: for pIC50: values separated by / and marked * are separate experimental runs
Protocol: The cGMP-PDE and other PDE isozymes were isolated from cardiovascular tissues (heart and aorta) of various animal species and man by anion-exchange and affinity chromatography as described by Silver et al., Sec. Messeng. Phos. 13:13-25, 1991; PDE activity, in the presence and absence of test compounds was determined essentially as described by Thompson et al., Adv. Cyclic Nucleotide Res. 10:69-92. To determine the potency and selectivity of compounds as PDE inhibitors, compounds are screened for their effect on cyclic nucleotide hydrolysis at 10 μM. […] The IC50 values are calculated from concentration-response curves as described by Tallarida and Murray, Manual of Pharmacologic Calculations with Computer Programs, Procedure 8, Graded Dose-response, pp. 14-19, Springer-Verlag, New York, 1981.

[1] = 0.1 μM, read-out: Percent Inhibition cGMP-PDE V
[2] = 1 μM, read-out: Percent Inhibition cGMP-PDE V
[3] = 10 μM, read-out: Percent Inhibition cGMP-PDE V
[4] = read-out: Percent Inhibition cGMP-PDE V

inhibition at 0.1 µM [1] [%]	inhibition at 1 µM [2] [%]	SMILES	also measured
26	76	CCOc1cc(-n2ccnc2)ccc1-c1nc2n(C3CCCC3)[nH]c(CC)c-2c(=O)n1 [46 (c), 1-cyclopentyl-3-ethyl-6-[4-(1-imidazolyl)-2-ethoxyphenyl]pyrazolo[3,4-d]pyrimidin-4-one]	inhibition at 10 µM [3]: 90%; pIC50: 7.74
21	73	CCc1[nH]n(C2CCCC2)c2nc(-c3ccccc3-n3ccnc3)nc(=O)c1-2 [27 (c), 1-cyclopentyl-3-ethyl-6-[2-(1-imidazolyl)phenyl]pyrazolo[3,4-d]pyrimidin-4-one]	–
–	40	CCc1[nH]n(C2CCCC2)c2nc(-c3ccc([N+](=O)[O-])cc3)nc(=O)c1-2 [Example 28, 1-cyclopentyl-3-ethyl-6-(4-nitrophenyl)pyrazolo [3,4-d]pyrimidin-4-one]	–
31	61	CCc1nn(C2CCCC2)c2nc(-c3ccc(N)cc3)[nH]c(=O)c12 [Example 31, 1-cyclopentyl-3-ethyl-6-(4-aminophenyl)pyrazolo[3,4-d]pyrimidin-4-one hydrochloride 1/3 hydrate]	–
30	74	CCOC(=O)COc1ccccc1-c1nc2n(C3CCCC3)[nH]c(CC)c-2c(=O)n1 [12 (b), 1-cyclopentyl-3-ethyl-6-[2-(ethoxycarbonylmethoxy)phenyl]pyrazolo [3,4-d]pyrimidin-4-one]	–
23	47	CCc1nn(C2CCCC2)c2nc(-c3ccc4c(c3)CCO4)[nH]c(=O)c12 [Example 32, 1-cyclopentyl-3-ethyl-6-(2,3-dihydrobenzo[b]furan-5-yl)pyrazolo[3,4-d]pyrimidin-4-one 1/10 hydrate]	–
41	75	CCc1[nH]n(C2CCCC2)c2nc(-c3cccc(OC4CCCCN(C)C4)c3)nc(=O)c1-2 (stereo not shown) [43 (b), 1-cyclopentyl-3-ethyl-6-[3-(1-methyl-3-hexahydroazepinyloxy)phenyl]pyrazolo[3,4-d]pyrimidin-4-one]	–
0	4	C=CCc1cccc(-c2nc3n(C4CCCC4)[nH]c(CC)c-3c(=O)n2)c1O [Example 36, 1-cyclopentyl-3-ethyl-6-[2-hydroxy-3-(2-propenyl)phenyl]pyrazolo[3,4-d]pyrimidin-4-one]	–
–	–	CCc1[nH]n(C2CCCC2)c2nc(-c3ccccc3C(F)(F)F)nc(=O)c1-2 [Example 15, 1-cyclopentyl-3-ethyl-6-(2-trifluoromethylphenyl)-pyrazolo[3,4-d]pyrimidin-4-one]	pIC50: 6.30
56	–	CCc1[nH]n(C2CCCC2)c2nc(-c3ccccc3OCCOC)nc(=O)c1-2 [34 (b), 1-cyclopentyl-3-ethyl-6-[2-[2-(methoxy)ethoxy]phenyl]pyrazolo[3,4-d]pyrimidin-4-one]	inhibition at 0.01 µM (0.01 μM, read-out: Percent Inhibition cGMP-PDE V): 28%
–	19	CCc1nn(C2CCCC2)c2nc(-c3ccccc3OCC(=O)O)[nH]c(=O)c12 [Example 16, 1-cyclopentyl-3-ethyl-6-[2-(carboxymethoxy)phenyl]pyrazolo[3,4-d]pyrimidin-4-one 1/2 hydrate]	inhibition at 10 µM [3]: 68%
–	–	CCOc1cc(Cl)ccc1-c1nc2n(C3CCCC3)[nH]c(CC)c-2c(=O)n1 [29 (b), 1-cyclopentyl-3-ethyl-6-(4-chloro-2-ethoxyphenyl)pyrazolo[3,4-d]pyrimidin-4-one]	pIC50: 8.13 and 8.08
46	56	CCc1[nH]n(C2CCCC2)c2nc(-c3cccc(OCCN4CCSCC4)c3)nc(=O)c1-2 [41 (c), 1-cyclopentyl-3-ethyl-6-[3-[2-(4-thiomorpholinyl)ethoxy]phenyl]pyrazolo[3,4-d]pyrimidin-4-one]	–
–	–	CCCOc1ccccc1-c1nc2[nH]ncc2c(=O)[nH]1 [17 (c), 6-(2-propoxyphenyl)pyrazolo[3,4-d]pyrimidin-4-one 1/4 hydrate]	inhibition at 0.1 µM [4]: 14%; inhibition at 1 µM [4]: 19%; inhibition at 10 µM [4]: 39%
